Test results: ChEMBL document CHEMBL1201861, “Genomics of Drug Sensitity in Cancer screening data, Wellcome Trust Sanger Institute”

Key:
[1] = test system: CPC-N; assay: cells; assay type: functional, cell-based; settings: Homo sapiens;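 note: growth inhibition of CPC-N cells, with a cell viability assay as the readout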
Description: SANGER: Inhibition of human CPC-N cell growth in a cell viability assay.

[2] = test system: DMS-153; assay: cells; assay type: functional, cell-based; settings: Homo sapiens
Description: SANGER: Inhibition of human DMS-153 cell growth in a cell viability assay.

[3] = test system: EB-3; assay: cells; assay type: functional, cell-based; settings: Homo sapiens;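 note: human EB-3 cells, growth inhibition read out via a cell viability assay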
Description: SANGER: Inhibition of human EB-3 cell growth in a cell viability assay.

[4] = test system: EW-22; assay: cells; assay type: functional, cell-based; settings: Homo sapiens;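 note: growth inhibition of the EW-22 cell line, measured with a cell viability readout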
Description: SANGER: Inhibition of human EW-22 cell growth in a cell viability assay.

[5] = test system: HCC 2998; assay: cells; assay type: functional, cell-based; settings: Homo sapiens;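 note: growth inhibition of human HCC2998 cells, measured with a cell viability read-out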
Description: SANGER: Inhibition of human HCC2998 cell growth in a cell viability assay.

[6] = test system: JIYOYE; assay: cells; assay type: functional, cell-based; settings: Homo sapiens
Description: SANGER: Inhibition of human JiyoyeP-2003 cell growth in a cell viability assay.

[7] = test system: KARPAS-422; assay: cells; assay type: functional, cell-based; settings: Homo sapiens
Description: SANGER: Inhibition of human KARPAS-422 cell growth in a cell viability assay.

[8] = test system: L-540; assay: cells; assay type: functional, cell-based; settings: Homo sapiens;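 note: growth inhibition of the human L-540 cell line, read out with a viability assay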
Description: SANGER: Inhibition of human L-540 cell growth in a cell viability assay.

[9] = test system: NCCIT; assay: SANGER: Inhibition of human NCCIT cell growth in a cell viability assay.; assay type: functional, cell-based
[10] = test system: NCI-H1436; assay: cells; assay type: functional, cell-based; settings: Homo sapiens;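 note: growth suppression of human NCI-H1436 cells, determined with a cell viability readout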
Description: SANGER: Inhibition of human NCI-H1436 cell growth in a cell viability assay.

[11] = test system: NCI-H1522; assay: cells; assay type: functional, cell-based; settings: Homo sapiens;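 note: growth inhibition of NCI-H1522 cells, read out with a cell viability assay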
Description: SANGER: Inhibition of human NCI-H1522 cell growth in a cell viability assay.

[12] = test system: NCI-H1963; assay: cells; assay type: functional, cell-based; settings: Homo sapiens;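 note: cell growth inhibition of the human line, determined with a cell viability assay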
Description: SANGER: Inhibition of human NCI-H1963 cell growth in a cell viability assay.

[13] = test system: ARH-77; assay: cells; assay type: functional, cell-based; settings: Homo sapiens;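 note: growth inhibition of ARH-77 cells, read out by a cell viability assay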
Description: SANGER: Inhibition of human ARH-77 cell growth in a cell viability assay.

[14] = test system: TUR; assay: cells; assay type: functional, cell-based; settings: Homo sapiens;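 note: growth inhibition of human TUR cells, read out with a cell viability assay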
Description: SANGER: Inhibition of human TUR cell growth in a cell viability assay.

[15] = test system: WSU-NHL; assay: cells; assay type: functional, cell-based; settings: Homo sapiens;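 note: growth inhibition of human WSU-NHL cells, read out with a cell viability assay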
Description: SANGER: Inhibition of human WSU-NHL cell growth in a cell viability assay.

[16] = test system: COLO-741; assay: cells; assay type: functional, cell-based; settings: Homo sapiens
Description: SANGER: Inhibition of human COLO-741 cell growth in a cell viability assay.

[17] = test system: COR-L105; assay: cells; assay type: functional, cell-based; settings: Homo sapiens
Description: SANGER: Inhibition of human COR-L105 cell growth in a cell viability assay.

[18] = test system: CP50-MEL-B; assay: cells; assay type: functional, cell-based; settings: Homo sapiens;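 note: growth inhibition of the human cell line, measured with a cell viability read-out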
Description: SANGER: Inhibition of human CP50-MEL-B cell growth in a cell viability assay.

[19] = test system: Calu-3; assay: cells; assay type: functional, cell-based; settings: Homo sapiens;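 note: growth inhibition of human Calu-3 cells, determined with a cell viability assay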
Description: SANGER: Inhibition of human Calu-3 cell growth in a cell viability assay.

[20] = test system: DMS-273; assay: cells; assay type: functional, cell-based; settings: Homo sapiens
Description: SANGER: Inhibition of human DMS-273 cell growth in a cell viability assay.

[21] = test system: G-402; assay: cells; assay type: functional, cell-based; settings: Homo sapiens
Description: SANGER: Inhibition of human G-402 cell growth in a cell viability assay.

[22] = test system: HEC-1; assay: cells; assay type: functional, cell-based; settings: Homo sapiens;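 note: growth inhibition of the cell line, read out with a cell viability assay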
Description: SANGER: Inhibition of human HEC-1 cell growth in a cell viability assay.

[23] = test system: HOS; assay: cells; assay type: functional, cell-based; settings: Homo sapiens;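 note: growth inhibition of human HOS cells, read out with a cell viability assay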
Description: SANGER: Inhibition of human HOS cell growth in a cell viability assay.

[24] = test system: HPAF-II; assay: cells; assay type: functional, cell-based; settings: Homo sapiens;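 note: growth inhibition of HPAF-II cells, read out with a cell viability assay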
Description: SANGER: Inhibition of human HPAF-II cell growth in a cell viability assay.

[25] = test system: HT-29; assay: cells; assay type: functional, cell-based; settings: Homo sapiens;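 note: growth inhibition of human HT-29 cells, read out by a cell viability assay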
Description: SANGER: Inhibition of human HT-29 cell growth in a cell viability assay.

[26] = test system: Huh-7; assay: cells; assay type: functional, cell-based; settings: Homo sapiens;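 note: HuH-7 cell growth inhibition, read out with a cell viability assay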
Description: SANGER: Inhibition of human HuH-7 cell growth in a cell viability assay.

[27] = test system: HuP-T4; assay: cells; assay type: functional, cell-based; settings: Homo sapiens;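 note: cell viability assay measuring how much HuP-T4 cell growth is inhibited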
Description: SANGER: Inhibition of human HuP-T4 cell growth in a cell viability assay.

[28] = test system: IGR-1; assay: cells; assay type: functional, cell-based; settings: Homo sapiens;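 note: growth inhibition of human IGR-1 cells, read out with a cell viability assay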
Description: SANGER: Inhibition of human IGR-1 cell growth in a cell viability assay.

[29] = test system: KOSC-2; assay: cells; assay type: functional, cell-based; settings: Homo sapiens;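 note: growth inhibition of KOSC-2 cells, read out by a cell viability assay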
Description: SANGER: Inhibition of human KOSC-2 cell growth in a cell viability assay.

[30] = test system: KP-N-YN; assay: cells; assay type: functional, cell-based; settings: Homo sapiens;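 note: growth inhibition of KP-N-YN cells, read out with a cell viability assay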
Description: SANGER: Inhibition of human KP-N-YN cell growth in a cell viability assay.

[31] = test system: KU-19-19; assay: cells; assay type: functional, cell-based; settings: Homo sapiens
Description: SANGER: Inhibition of human KU-19-19 cell growth in a cell viability assay.

[32] = test system: KYSE-140; assay: cells; assay type: functional, cell-based; settings: Homo sapiens;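 note: cell viability assay measuring growth inhibition in human KYSE-140 cells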
Description: SANGER: Inhibition of human KYSE-140 cell growth in a cell viability assay.

[33] = test system: KYSE-150 cell line; assay: cells; assay type: functional, cell-based; settings: Homo sapiens;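 note: growth inhibition of human KYSE-150 cells, read out with a cell viability assay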
Description: SANGER: Inhibition of human KYSE-150 cell growth in a cell viability assay.

[34] = test system: KYSE-270; assay: cells; assay type: functional, cell-based; settings: Homo sapiens;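 note: cell growth inhibition measured with a viability assay in the human KYSE-270 line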
Description: SANGER: Inhibition of human KYSE-270 cell growth in a cell viability assay.

[35] = test system: KYSE-70 cell line; assay: cells; assay type: functional, cell-based; settings: Homo sapiens;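 note: cell viability assay read-out, with IC50 expressing suppression of KYSE-70 cell growth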
Description: SANGER: Inhibition of human KYSE-70 cell growth in a cell viability assay.

[36] = test system: MHH-ES-1; assay: cells; assay type: functional, cell-based; settings: Homo sapiens
Description: SANGER: Inhibition of human MHH-ES-1 cell growth in a cell viability assay.

[37] = test system: MKN-7; assay: cells; assay type: functional, cell-based; settings: Homo sapiens;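 note: growth inhibition of MKN-7 cells, read out with a cell viability assay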
Description: SANGER: Inhibition of human MKN7 cell growth in a cell viability assay.

[38] = test system: NCI-H1755; assay: cells; assay type: functional, cell-based; settings: Homo sapiens;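 note: cell viability readout used to measure growth inhibition of NCI-H1755 cells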
Description: SANGER: Inhibition of human NCI-H1755 cell growth in a cell viability assay.

[39] = test system: NCI-H1792; assay: cells; assay type: functional, cell-based; settings: Homo sapiens;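 note: growth inhibition of human NCI-H1792 cells, read out as cell viability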
Description: SANGER: Inhibition of human NCI-H1792 cell growth in a cell viability assay.

[40] = test system: NCI-H2030; assay: cells; assay type: functional, cell-based; settings: Homo sapiens;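 note: growth inhibition of human NCI-H2030 cells, read out by a cell viability assay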
Description: SANGER: Inhibition of human NCI-H2030 cell growth in a cell viability assay.

[41] = test system: NCI-H2170; assay: cells; assay type: functional, cell-based; settings: Homo sapiens;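 note: cell viability assay measuring growth inhibition of human NCI-H2170 cancer cells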
Description: SANGER: Inhibition of human NCI-H2170 cell growth in a cell viability assay.

[42] = test system: NCI-H2228; assay: cells; assay type: functional, cell-based; settings: Homo sapiens;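 note: growth inhibition of human NCI-H2228 cells, read out by a cell viability assay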
Description: SANGER: Inhibition of human NCI-H2228 cell growth in a cell viability assay.

[43] = test system: NCI-H661; assay: cells; assay type: functional, cell-based; settings: Homo sapiens;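 note: cell viability assay read-out, IC50 being the concentration that inhibits growth of the cells by half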
Description: SANGER: Inhibition of human NCI-H661 cell growth in a cell viability assay.

[44] = test system: OE33; assay: cells; assay type: functional, cell-based; settings: Homo sapiens;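 note: growth inhibition of human OE33 cells, measured by a cell viability assay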
Description: SANGER: Inhibition of human OE33 cell growth in a cell viability assay.

[45] = test system: PA-1; assay: cells; assay type: functional, cell-based; settings: Homo sapiens;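 note: IC50 for suppression of PA-1 cell proliferation, determined with a cell viability read-out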
Description: SANGER: Inhibition of human PA-1 cell growth in a cell viability assay.

[46] = test system: PANC-03-27; assay: cells; assay type: functional, cell-based; settings: Homo sapiens
Description: SANGER: Inhibition of human PANC-03-27 cell growth in a cell viability assay.

[47] = test system: RMG-I; assay: cells; assay type: functional, cell-based; settings: Homo sapiens;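 note: growth inhibition of human RMG-I cells, read out with a cell viability assay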
Description: SANGER: Inhibition of human RMG-I cell growth in a cell viability assay.

[48] = test system: SW13; assay: cells; assay type: functional, cell-based; settings: Homo sapiens;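 note: IC50 is inhibition of SW13 cell growth, read out with a cell viability assay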
Description: SANGER: Inhibition of human SW13 cell growth in a cell viability assay.

[49] = test system: T-24; assay: cells; assay type: functional, cell-based; settings: Homo sapiens;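 note: growth inhibition of T-24 cells, read out with a cell viability assay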
Description: SANGER: Inhibition of human T-24 cell growth in a cell viability assay.

[50] = test system: TCC-SUP; assay: cells; assay type: functional, cell-based; settings: Homo sapiens;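 note: growth inhibition of TCC-SUP cells, read out with a cell viability assay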
Description: SANGER: Inhibition of human TCCSUP cell growth in a cell viability assay.

[51] = test system: A673; assay: cells; assay type: functional, cell-based; settings: Homo sapiens;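 note: growth inhibition of human A673 cells, read out through a cell viability assay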
Description: SANGER: Inhibition of human A673 cell growth in a cell viability assay.

[52] = test system: ACHN; assay: cells; assay type: functional, cell-based; settings: Homo sapiens;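 note: cell viability read-out used to gauge how strongly growth of human ACHN cells is suppressed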
Description: SANGER: Inhibition of human ACHN cell growth in a cell viability assay.

[53] = test system: BFTC-905; assay: cells; assay type: functional, cell-based; settings: Homo sapiens
Description: SANGER: Inhibition of human BFTC-905 cell growth in a cell viability assay.

[54] = test system: BFTC-909; assay: cells; assay type: functional, cell-based; settings: Homo sapiens
Description: SANGER: Inhibition of human BFTC-909 cell growth in a cell viability assay.

[55] = test system: CAL-12T; assay: cells; assay type: functional, cell-based, Homo sapiens; settings: Homo sapiens, CAL-12T;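 note: growth inhibition of human CAL-12T cells, read out with a cell viability assay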
Description: SANGER: Inhibition of human CAL-12T cell growth in a cell viability assay.

[56] = test system: CAL-54; assay: cells; assay type: functional, cell-based; settings: Homo sapiens;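 note: growth inhibition of CAL-54 cells, read out by a viability measurement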
Description: SANGER: Inhibition of human CAL-54 cell growth in a cell viability assay.

[57] = test system: U-118-MG; assay: cells; assay type: functional, cell-based; settings: Homo sapiens
Description: SANGER: Inhibition of human U-118-MG cell growth in a cell viability assay.

[58] = test system: UO-31; assay: cells; assay type: functional, cell-based; settings: Homo sapiens
Description: SANGER: Inhibition of human U031 cell growth in a cell viability assay.

[59] = test system: UACC-893; assay: cells; assay type: functional, cell-based; settings: Homo sapiens
Description: SANGER: Inhibition of human UACC-893 cell growth in a cell viability assay.

[60] = test system: UMC-11; assay: cells; assay type: functional, cell-based; settings: Homo sapiens;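 note: growth inhibition of UMC-11 cells, read out with a cell viability assay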
Description: SANGER: Inhibition of human UMC-11 cell growth in a cell viability assay.

[61] = test system: VMRC-RCZ; assay: cells; assay type: functional, cell-based; settings: Homo sapiens
Description: SANGER: Inhibition of human VMRC-RCZ cell growth in a cell viability assay.

With Cc1ccc(NC(=O)c2cccc(C(C)(C)C#N)c2)cc1Nc1ccc2ncn(C)c(=O)c2c1 the IC50 [1] was greater than 4 µM, the IC50 [2] was greater than 4 µM and the IC50 [3] was greater than 4 µM. It also gave an IC50 [4] greater than 0.004 mM, an IC50 [5] of 0.222 µM and an IC50 [6] greater than 4 µM. It also gave an IC50 [7] greater than 4 µM, an IC50 [8] of 3.96 µM and an IC50 [9] greater than 4 µM. The IC50 [10] was greater than 4 µM, the IC50 [11] was greater than 4 µM and the IC50 [12] was greater than 4 µM. The IC50 [13] was greater than 4 µM, the IC50 [14] was greater than 4 µM and the IC50 [15] was greater than 4 µM.

For NC(=O)c1ncn([C@@H]2O[C@H](COP(=O)(O)O)[C@@H](O)[C@H]2O)c1N, the IC50 [16] was greater than 2 mM, the IC50 [17] was greater than 2 mM and the IC50 [18] was greater than 2 mM. The IC50 [19] was 1.92 mM, the IC50 [20] was greater than 2 mM and the IC50 [4] was greater than 2 mM. It also gave an IC50 [21] of 1.32 mM, an IC50 [5] greater than 2000 µM and an IC50 [22] greater than 2 mM. It also gave an IC50 [23] greater than 2 mM, an IC50 [24] greater than 2 mM and an IC50 [25] greater than 2 mM. The IC50 [26] was greater than 2 mM, the IC50 [27] was greater than 2 mM and the IC50 [28] was greater than 2 mM. The IC50 [29] was 526 µM, the IC50 [30] was greater than 2 mM and the IC50 [31] was greater than 2 mM. The IC50 [32] was 1.73 mM, the IC50 [33] was 1.01 mM and the IC50 [34] was greater than 2 mM. It also gave an IC50 [35] greater than 2 mM, an IC50 [36] of 1.51 mM and an IC50 [37] greater than 2 mM. For the same compound, the IC50 [38] was 1.84 mM, the IC50 [39] was 1.59 mM and the IC50 [40] was 1.51 mM. The IC50 [41] was greater than 2 mM, the IC50 [42] was 1.95 mM and the IC50 [43] was greater than 2 mM. The IC50 [44] was 1.33 mM, the IC50 [45] was 856 µM and the IC50 [46] was greater than 2 mM. It also gave an IC50 [47] greater than 2 mM, an IC50 [48] greater than 2 mM and an IC50 [49] greater than 2 mM. It also gave an IC50 [50] of 1.03 mM, an IC50 [51] greater than 2 mM and an IC50 [52] of 1.21 mM. It also gave an IC50 [53] greater than 2 mM, an IC50 [54] greater than 2 mM and an IC50 [55] of 668 µM. It also gave an IC50 [56] greater than 2 mM, an IC50 [57] of 1.43 mM and an IC50 [58] of 766 µM. The IC50 [59] was greater than 2 mM, the IC50 [60] was greater than 2 mM and the IC50 [61] was greater than 2 mM.
